According to patent US12246022B2, “Compositions and methods for treating, preventing or reversing age associated inflammation and disorders” (BROWN UNIVERSITY, priority 2019, dated 2025):
Like-named read-outs stand apart in the source and are kept apart here.

Tests used:
Assay type in all cases: cell-based
[1] = system: human LINE-1; test: Human LINE-1 retrotransposition assay (dual luciferase pYX017 reporter, HeLa cells, Table 11)
Procedure: Assays were performed as described in Xie et al., 2011^151 with several modifications. The reporter assay was performed in 96 well white Optical bottom plates. 6000 HeLa cells were seeded in each well 24 hours prior transfection and compound treatment. All compounds were resuspended in DMSO. Stock solution concentrations varied from 50 mM to 1.25 mM depending of the solubility of the compound. Serial dilutions (1:3) were prepared in DMSO. Ten different concentrations of each compound were tested in triplicate. Medium containing different concentrations of the compounds were prepared by adding 2 μL of the compound dilution to 1 mL of the culture medium. The final concentration of DMSO in the medium was 0.2%. FuGENE® HD transfection reagent (Promega) was used to transfect the plasmid pYX016 into the cells. The transfection mix was prepared in OpiMEM (Thermo Fisher) using a reagent to DNA ratio of 3.5:1 according to manufacturer's instructions. Culture medium was removed from the cells and discarded. The transfection mix (5 μL) was mixed with the compound containing medium (100 μL/well) and this was added onto the cells of each well. Cells were incubated for 48H at 37° C./5% CO2. Luciferase reporter activity was quantified with the Dual-Luciferase® Reporter Assay System (Promega) according to manufacturer's instructions for multiwell plates with the following modification: Cells were lysed directly on the multiwell plate with 30 μL of the passive lysis buffer (PLB) for 20 min at room temperature, with gentle shaking to ensure complete cell lysis (instead of 20 μL of PLB for 15 min). Firefly and Renilla luciferase signals were measured using a SpectraMax i3x Multi-Mode Microplate Reader. […] Relative L1 activity was calculated as Firefly/Renilla *10,000. […] The experiment was performed twice, independently. […] Because the human construct yields a lower signal, compounds were incubated with cells for 72 hours instead of 48 hours, and cells were seeded at a density of 2000/well instead of 6000/well. In addition, the transfection reagent to DNA ratio was 2:1 instead of 3.5:1.

[2] = system: HeLa cells; test: Cell viability assay (CellTiter-Glo); details: doses up to 2 μM
Procedure: As described above, the toxicity of RTIs could impair their ability to halt or block the harmful effects of senescent cells and their ability to prevent or reverse age-related inflammation and disorders.
HeLa cells were treated with the different concentrations of the eight RTI compounds for 48 hours. Cell viability was measured with CellTiter-Glo® luminescent cell viability assay (Promega®) and presented as percentage of cell viability versus untreated cells. Staurosporine, known to induce cell death, was used as a control.

[3] = system: mouse LINE-1; test: Mouse LINE-1 retrotransposition assay (dual luciferase pYX016 reporter, HeLa cells)
Procedure: Elvucitabine was obtained by custom synthesis. […] HeLa cervical cancer cells were cultivated at 37° C. in a humidified 5% CO2 incubator in Dulbecco's Modified Eagle's Medium (DMEM)-high glucose, with 4500 mg/L glucose, L-glutamine, sodium pyruvate and sodium bicarbonate (Sigma), supplemented with 10% of heat inactivated fetal bovine serum (Thermo Fisher). Assays were performed as described in Xie et al., 2011^151 with several modifications. The reporter assay was performed in 96 well white Optical bottom plates. 6000 HeLa cells were seeded in each well 24 hours prior transfection and compound treatment. All compounds were resuspended in DMSO. Stock solution concentrations varied from 50 mM to 1.25 mM depending of the solubility of the compound. Serial dilutions (1:3) were prepared in DMSO. Ten different concentrations of each compound were tested in triplicate. Medium containing different concentrations of the compounds were prepared by adding 2 μL of the compound dilution to 1 mL of the culture medium. The final concentration of DMSO in the medium was 0.2%. FuGENE® HD transfection reagent (Promega) was used to transfect the plasmid pYX016 into the cells. The transfection mix was prepared in OpiMEM (Thermo Fisher) using a reagent to DNA ratio of 3.5:1 according to manufacturer's instructions. Culture medium was removed from the cells and discarded. The transfection mix (5 μL) was mixed with the compound containing medium (100 μL/well) and this was added onto the cells of each well. Cells were incubated for 48H at 37° C./5% CO2. Luciferase reporter activity was quantified with the Dual-Luciferase® Reporter Assay System (Promega) according to manufacturer's instructions for multiwell plates with the following modification: Cells were lysed directly on the multiwell plate with 30 μL of the passive lysis buffer (PLB) for 20 min at room temperature, with gentle shaking to ensure complete cell lysis (instead of 20 μL of PLB for 15 min). Firefly and Renilla luciferase signals were measured using a SpectraMax i3x Multi-Mode Microplate Reader. […] Relative L1 activity was calculated as Firefly/Renilla *10,000. […] The experiment was performed twice, independently.

Nc1nc(=O)n([C@@H]2C=C[C@H](CO)O2)cc1F [Elvucitabine]
IC50 ([1]; pYX017, 72 H post-transfection, read-out: Human L1 activity inhibition IC50, Exp. 1): 94 nM | IC50 ([1]; read-out: human L1 inhibition IC50): ~100 nM | toxicity in the cell viability assay [2]: without inducing toxicity | IC50 ([3]; pYX016, 48 H post-transfection, read-out: Mouse L1 activity inhibition IC50, Exp. 1): 116 nM | IC50 ([3]; pYX016, 48 H post-transfection, read-out: Mouse L1 activity inhibition IC50, Exp. 2): 106 nM | IC50 ([3]; pYX016, 48 H, n = 2, read-out: Mouse L1 activity inhibition IC50, Average): 111 nM | IC50 ([3]; read-out: mouse L1 inhibition IC50): ~100 nM
